Our source for the DC50 and Dmax values is patent publication US20250215012A1, “IKZF2 DEGRADERS AND USES THEREOF” (REGENTS OF THE UNIVERSITY OF MICHIGAN, priority 2022, published 2025).

This experiment has as its target IKZF2 (Homo sapiens (Human), UniProt Q96SW2+Q9UKS7). The experiment can be described thus: IKZF2 HiBiT Assay (Jurkat-IKZF2-HiBiT cell line). Type of experiment: cell-based. As to conditions: Jurkat-IKZF2-HiBiT cells, 24 hours; for DC50: read-out: HiBit assay degradation analysis DC50; for Dmax: read-out: HiBit assay degradation analysis Dmax. The procedure, abridged:
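Jurkat cells carrying HiBiT-tagged IKZF2 were exposed to serially diluted compound for 24 h at 37 °C. Remaining IKZF2 was measured by Nano-Glo HiBiT lytic luminescence after 10-20 min at room temperature. Signal was normalized to DMSO, and IC50 came from a four-parameter variable-slope fit.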

Chain of IKZF2 (Q9UKS7 whole entry): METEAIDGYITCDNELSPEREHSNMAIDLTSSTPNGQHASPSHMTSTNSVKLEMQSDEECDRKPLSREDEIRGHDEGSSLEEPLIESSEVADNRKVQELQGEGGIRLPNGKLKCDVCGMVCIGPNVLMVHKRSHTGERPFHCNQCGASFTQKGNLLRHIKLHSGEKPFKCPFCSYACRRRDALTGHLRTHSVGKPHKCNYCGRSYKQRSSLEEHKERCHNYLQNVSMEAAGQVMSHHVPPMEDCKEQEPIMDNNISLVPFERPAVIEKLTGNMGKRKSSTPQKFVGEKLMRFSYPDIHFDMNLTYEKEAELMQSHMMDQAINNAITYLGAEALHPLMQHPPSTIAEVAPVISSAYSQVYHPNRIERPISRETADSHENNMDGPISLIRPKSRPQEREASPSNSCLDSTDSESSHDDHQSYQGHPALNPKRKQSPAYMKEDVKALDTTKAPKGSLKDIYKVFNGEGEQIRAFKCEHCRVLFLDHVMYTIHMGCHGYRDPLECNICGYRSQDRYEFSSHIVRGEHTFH
Chain of IKZF2 (Q96SW2 whole entry): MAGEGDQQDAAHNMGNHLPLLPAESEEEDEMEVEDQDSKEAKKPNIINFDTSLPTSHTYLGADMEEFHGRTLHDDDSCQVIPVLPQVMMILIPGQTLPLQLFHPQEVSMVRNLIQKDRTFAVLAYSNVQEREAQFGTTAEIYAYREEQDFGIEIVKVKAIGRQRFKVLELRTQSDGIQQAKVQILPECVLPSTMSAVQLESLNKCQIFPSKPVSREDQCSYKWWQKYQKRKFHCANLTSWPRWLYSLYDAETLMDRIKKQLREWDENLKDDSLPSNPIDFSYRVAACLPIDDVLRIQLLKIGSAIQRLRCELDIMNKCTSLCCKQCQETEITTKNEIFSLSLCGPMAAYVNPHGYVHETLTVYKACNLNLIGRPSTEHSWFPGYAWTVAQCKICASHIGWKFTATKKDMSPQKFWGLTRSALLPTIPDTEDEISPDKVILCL
Chain of IKZF2 (Q16531 whole entry partner): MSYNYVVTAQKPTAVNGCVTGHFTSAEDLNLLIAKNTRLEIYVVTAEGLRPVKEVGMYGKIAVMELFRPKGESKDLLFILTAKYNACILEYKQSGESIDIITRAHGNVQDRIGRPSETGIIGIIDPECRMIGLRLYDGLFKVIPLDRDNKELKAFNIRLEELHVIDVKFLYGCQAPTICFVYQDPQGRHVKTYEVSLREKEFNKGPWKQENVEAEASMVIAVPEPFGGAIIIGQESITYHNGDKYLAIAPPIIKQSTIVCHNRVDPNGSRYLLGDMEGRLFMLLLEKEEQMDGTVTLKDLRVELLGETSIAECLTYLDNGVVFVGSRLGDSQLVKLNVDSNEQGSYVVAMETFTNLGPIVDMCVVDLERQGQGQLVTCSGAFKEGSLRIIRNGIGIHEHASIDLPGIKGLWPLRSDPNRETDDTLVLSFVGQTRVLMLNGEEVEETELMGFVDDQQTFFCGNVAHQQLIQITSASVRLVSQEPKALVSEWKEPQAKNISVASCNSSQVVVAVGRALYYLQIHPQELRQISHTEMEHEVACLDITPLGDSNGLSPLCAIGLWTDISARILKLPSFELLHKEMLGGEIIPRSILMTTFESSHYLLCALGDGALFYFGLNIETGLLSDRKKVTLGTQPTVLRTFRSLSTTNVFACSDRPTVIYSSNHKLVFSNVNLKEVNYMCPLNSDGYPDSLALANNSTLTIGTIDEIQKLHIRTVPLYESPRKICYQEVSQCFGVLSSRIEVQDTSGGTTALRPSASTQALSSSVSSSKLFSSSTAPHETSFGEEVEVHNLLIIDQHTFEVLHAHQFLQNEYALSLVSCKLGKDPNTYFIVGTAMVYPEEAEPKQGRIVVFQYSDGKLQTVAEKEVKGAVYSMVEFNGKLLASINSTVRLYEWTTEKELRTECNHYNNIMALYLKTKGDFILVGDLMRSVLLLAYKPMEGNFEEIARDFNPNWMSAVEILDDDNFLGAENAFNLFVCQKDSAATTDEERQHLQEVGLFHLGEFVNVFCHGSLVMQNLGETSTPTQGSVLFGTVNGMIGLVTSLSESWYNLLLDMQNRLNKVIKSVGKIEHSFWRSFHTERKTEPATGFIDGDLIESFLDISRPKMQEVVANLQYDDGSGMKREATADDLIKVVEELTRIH

Consider `CCOc1cccc(CN2CCC3(CC2)COc2c3ccc3c2CN(C2CCC(=O)NC2=O)C3=O)n1` (centres unmarked) [Compound A252, 3-(1′-((6-ethoxypyridin-2-yl)methyl)-6-oxo-6,8-dihydro-2H,7H-spiro[furo[2,3-e]isoindole-3,4′-piperidin]-7-yl)piperidine-2,6-dione], for which the DC50 is > 0.5 µM and the Dmax was < 40%.
For `Cn1cc(CN2CCC3(CC2)COc2c3ccc3c2CN(C2CCC(=O)NC2=O)C3=O)c(-c2ccccc2)n1` (centres unmarked) [Compound A256, 3-(1′-((1-methyl-3-phenyl-1H-pyrazol-4-yl)methyl)-6-oxo-6,8-dihydro-2H,7H-spiro[furo[2,3-e]isoindole-3,4′-piperidin]-7-yl)piperidine-2,6-dione], in that order: > 0.5 µM and < 40%.
In the case of `[2H]C([2H])([2H])n1cc(-c2cccc(CN3CCC4(CC3)COc3c4ccc4c3CN([C@H]3CCC(=O)NC3=O)C4=O)c2)cn1` [Compound A291, (S)-3-(1′-(3-(1-(methyl-d3)-1H-pyrazol-4-yl)benzyl)-6-oxo-6,8-dihydro-2H,7H-spiro[furo[2,3-e]isoindole-3,4′-piperidin]-7-yl)piperidine-2,6-dione], the DC50 was < 0.05 µM and the Dmax lay in the range of 60 to 80%.
The matching figures for `COCCn1cc2cc(CN3CCC4(CC3)COc3c4ccc4c3CN(C3CCC(=O)NC3=O)C4=O)ccc2n1` (centres unmarked) [Compound A341, 3-(1′-((2-(2-methoxyethyl)-2H-indazol-5-yl)methyl)-6-oxo-6,8-dihydro-2H,7H-spiro[furo[2,3-e]isoindole-3,4′-piperidin]-7-yl) piperidine-2,6-dione]: > 0.5 µM and < 40%.
`O=C1CCC(N2Cc3c(ccc4c3OCC43CCN(Cc4cnn(Cc5cccc(Cl)c5)c4)CC3)C2=O)C(=O)N1` (centres unmarked) [Compound A242, 3-(1′-((1-(3-chlorobenzyl)-1H-pyrazol-4-yl)methyl)-6-oxo-6,8-dihydro-2H,7H-spiro[furo[2,3-e]isoindole-3,4′-piperidin]-7-yl) piperidine-2,6-dione]: the DC50 was < 0.05 µM and the Dmax was in the range of 60 to 80%.
Take `O=C1CCC(N2Cc3c(ccc4c3OCC43CCN(Cc4cccc5ncccc45)CC3)C2=O)C(=O)N1` (centres unmarked) [Compound A38, 3-(6-oxo-1′-(quinolin-5-ylmethyl)-6,8-dihydro-2H,7H-spiro[furo[2,3-e]isoindole-3,4′-piperidin]-7-yl)piperidine-2,6-dione]: the DC50 fell in the range of 0.05 to 0.2 µM and the Dmax was in the range of 60 to 80%.
For `O=C1CCC(N2Cc3c(ccc4c3OCC43CCN(Cc4ncn(-c5ccccc5)n4)CC3)C2=O)C(=O)N1` (centres unmarked) [Compound A335, 3-(6-oxo-1′-((1-phenyl-1H-1,2,4-triazol-3-yl)methyl)-6,8-dihydro-2H,7H-spiro[furo[2,3-e]isoindole-3,4′-piperidin]-7-yl)piperidine-2,6-dione], in that order: > 0.5 µM and < 40%.
As for `COc1ncc(CN2CCC3(CC2)COc2c3ccc3c2CN(C2CCC(=O)NC2=O)C3=O)cn1` (centres unmarked) [Compound A26, 3-(1′-((2-methoxypyrimidin-5-yl)methyl)-6-oxo-6,8-dihydro-2H,7H-spiro[furo[2,3-e]isoindole-3,4′-piperidin]-7-yl)piperidine-2,6-dione], the 50% degradation concentration (DC50) is > 0.5 µM and the Dmax is < 40%.
As to `O=C1CCC(N2Cc3c(ccc4c3OCC43CCN(Cc4ccc(Cl)cc4F)CC3)C2=O)C(=O)N1` (centres unmarked) [Compound A4, 3-(1′-(4-chloro-2-fluorobenzyl)-6-oxo-6,8-dihydro-2H,7H-spiro[furo[2,3-e]isoindole-3,4′-piperidin]-7-yl)piperidine-2,6-dione], the DC50 is > 0.5 µM and the Dmax lay within 40 to 60%.
For `O=C1CCC(N2Cc3c(ccc4c3OCC43CCN(Cc4csc5ccccc45)CC3)C2=O)C(=O)N1` (centres unmarked) [Compound A185, 3-(1′-(benzo[b]thiophen-3-ylmethyl)-6-oxo-6,8-dihydro-2H,7H-spiro[furo[2,3-e]isoindole-3,4′-piperidin]-7-yl)piperidine-2,6-dione], in that order: < 0.05 µM and 60 to 80%.
